pIC50: −log10 of the molar value.
What was measured:
[1] = target: 3',5'-cyclic-AMP phosphodiesterase 4B (Homo sapiens, UniProt Q07343); assay: Inhibition of human recombinant PDE4B1 expressed in insect Sf9 cells by fluorescence capillary-electrophoresis assay
Phosphodiesterase 4 [2] = target: T1, Phosphodiesterase 4 (Homo sapiens, UniProt P27815+Q08499+Q07343+Q08493); assay: Inhibition of PDE4 in human SHSY-5Y cells assessed as suppression of cAMP hydrolysis by HTRF assay in presence of dye d2 labelled cAMP; assay type: cell-based; details: sh-sy5y
Phosphodiesterase 4 [3] = target: T1, Phosphodiesterase 4; assay: Inhibition of PDE4 in human SHSY-5Y cells assessed as suppression of cAMP hydrolysis at 10 uM by HTRF assay in presence of dye d2 labelled cAMP; assay type: cell-based; details: SH-SY5Y
[4] = target: cGMP-inhibited 3',5'-cyclic phosphodiesterase 3A (Homo sapiens, UniProt Q14432); assay: Inhibition of human recombinant PDE3 by fluorescence capillary-electrophoresis assay
cGMP-inhibited 3',5'-cyclic phosphodiesterase 3A, sequence (Q14432 whole entry): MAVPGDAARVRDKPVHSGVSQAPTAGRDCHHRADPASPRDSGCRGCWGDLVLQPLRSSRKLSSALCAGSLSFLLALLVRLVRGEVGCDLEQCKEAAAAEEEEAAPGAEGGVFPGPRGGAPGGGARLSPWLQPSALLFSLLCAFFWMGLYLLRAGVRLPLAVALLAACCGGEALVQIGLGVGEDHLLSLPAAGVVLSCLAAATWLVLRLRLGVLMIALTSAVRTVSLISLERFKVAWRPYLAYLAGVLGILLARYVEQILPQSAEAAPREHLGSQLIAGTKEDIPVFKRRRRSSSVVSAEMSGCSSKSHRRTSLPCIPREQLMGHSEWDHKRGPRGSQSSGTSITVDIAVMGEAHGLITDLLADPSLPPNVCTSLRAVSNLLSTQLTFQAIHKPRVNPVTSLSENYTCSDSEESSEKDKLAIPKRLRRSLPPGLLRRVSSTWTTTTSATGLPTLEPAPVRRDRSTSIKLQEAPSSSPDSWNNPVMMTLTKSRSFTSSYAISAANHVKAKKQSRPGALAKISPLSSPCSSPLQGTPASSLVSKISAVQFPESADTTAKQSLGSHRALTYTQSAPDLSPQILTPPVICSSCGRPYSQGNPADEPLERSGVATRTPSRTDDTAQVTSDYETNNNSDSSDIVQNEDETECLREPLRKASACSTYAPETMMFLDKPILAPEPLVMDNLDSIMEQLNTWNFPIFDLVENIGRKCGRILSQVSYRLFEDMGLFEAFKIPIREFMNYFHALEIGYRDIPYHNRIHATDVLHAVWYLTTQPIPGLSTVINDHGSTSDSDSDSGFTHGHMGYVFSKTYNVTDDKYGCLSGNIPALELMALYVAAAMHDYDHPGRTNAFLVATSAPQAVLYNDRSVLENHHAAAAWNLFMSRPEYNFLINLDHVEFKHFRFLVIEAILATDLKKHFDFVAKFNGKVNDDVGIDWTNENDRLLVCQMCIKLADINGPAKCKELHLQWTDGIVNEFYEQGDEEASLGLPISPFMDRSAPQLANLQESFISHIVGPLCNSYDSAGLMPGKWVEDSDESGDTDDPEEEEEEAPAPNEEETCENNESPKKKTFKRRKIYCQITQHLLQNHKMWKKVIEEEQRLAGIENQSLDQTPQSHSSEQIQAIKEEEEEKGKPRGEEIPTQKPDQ

3',5'-cyclic-AMP phosphodiesterase 4B, sequence (Q07343 whole entry): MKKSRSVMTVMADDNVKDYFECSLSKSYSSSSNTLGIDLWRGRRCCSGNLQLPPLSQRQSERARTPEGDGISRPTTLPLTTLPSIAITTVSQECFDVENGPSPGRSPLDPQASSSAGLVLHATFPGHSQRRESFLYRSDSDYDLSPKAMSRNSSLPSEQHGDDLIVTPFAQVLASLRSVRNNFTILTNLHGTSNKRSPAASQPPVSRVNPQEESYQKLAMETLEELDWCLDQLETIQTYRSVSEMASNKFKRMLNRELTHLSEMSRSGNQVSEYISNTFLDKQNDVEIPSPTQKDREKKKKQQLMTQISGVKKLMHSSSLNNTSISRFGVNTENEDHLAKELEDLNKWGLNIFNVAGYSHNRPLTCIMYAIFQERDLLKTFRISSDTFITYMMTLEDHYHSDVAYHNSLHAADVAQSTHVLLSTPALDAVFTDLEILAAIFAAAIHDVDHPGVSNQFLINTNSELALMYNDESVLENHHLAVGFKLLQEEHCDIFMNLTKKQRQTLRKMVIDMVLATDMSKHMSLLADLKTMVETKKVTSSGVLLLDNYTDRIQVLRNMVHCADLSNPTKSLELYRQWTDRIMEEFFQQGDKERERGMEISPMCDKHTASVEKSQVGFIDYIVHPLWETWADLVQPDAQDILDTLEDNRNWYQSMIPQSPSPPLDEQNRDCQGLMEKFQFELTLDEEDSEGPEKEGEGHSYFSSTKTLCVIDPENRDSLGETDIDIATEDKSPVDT

| pIC50 [1] | IC50 (Phosphodiesterase 4 [2]) [nM] | inhibition (Phosphodiesterase 4 [3]) [%] | pIC50 [4] | Compound |
| --- | --- | --- | --- | --- |
| 10.52 | 5 | – | – | Cc1c(S(C)(=O)=O)nn2c(Nc3cc(Cl)cc(Cl)c3)c3c(nc12)CCNC3=O |
| 7.59 | 1820 | – | – | COc1cccc(Nc2c(C(N)=O)cnc3c(C)c(S(C)(=O)=O)nn23)c1 |
| 9.70 | 130 | – | – | Cc1c(S(=O)(=O)c2cccc(C(=O)N(C)C)c2)nn2c(Nc3cc(Cl)cc(Cl)c3)c(C(N)=O)cnc12 |
| 8.30 | 270 | – | – | COc1cccc(Nc2c(C(N)=O)cnc3c(C(C)C)c(S(C)(=O)=O)nn23)c1 |
| 6.78 | > 10000 | < 50 | < 5.00 | COc1cccc(Nc2c(C(N)=O)cnc3c(C)cnn23)c1 |
| 7.80 | > 10000 | – | – | Cc1cnn2c(Nc3cc(Cl)cc(Cl)c3)c(C(N)=O)cnc12 |
| 8.40 | 243 | – | – | COc1cccc(Nc2c(C(N)=O)cnc3c(C)c(S(=O)(=O)c4ccccc4)nn23)c1 |
| 8.22 | 507 | – | – | CC(C)c1c(S(C)(=O)=O)nn2c(Nc3cc(Cl)cc(Cl)c3)c(C(N)=O)cnc12 |
| 7.42 | 5400 | – | – | CCc1cnn2c(Nc3cccc(OC)c3)c(C(N)=O)cnc12 |
| 10.00 | 8 | – | – | COc1cccc(Nc2c3c(nc4c(C)c(S(C)(=O)=O)nn24)CCNC3=O)c1 |
| 8.15 | 1500 | – | – | Cc1c(S(C)(=O)=O)nn2c(Nc3cc(Cl)cc(Cl)c3)c(C(N)=O)cnc12 |
| 9.15 | 629 | – | – | COc1cccc(Nc2c(C(N)=O)cnc3c(C)c(S(=O)(=O)c4cccc(C(=O)N(C)C)c4)nn23)c1 |
| < 5.00 | > 10000 | – | – | CNC(=O)c1cnc2c(C)cnn2c1Nc1cccc(OC)c1 |
| 8.15 | 5600 | – | – | Cc1c(S(=O)(=O)c2ccccc2)nn2c(Nc3cc(Cl)cc(Cl)c3)c(C(N)=O)cnc12 |
| 5.71 | > 10000 | – | – | Cc1cnn2c(Nc3ccccc3)c(C(N)=O)cnc12 |
| 9.70 | 480 | – | – | CSc1nn2c(Nc3cc(Cl)cc(Cl)c3)c3c(nc2c1C)CCNC3=O |

From ChEMBL document CHEMBL3745619, “Preparation and optimization of pyrazolo[1,5-a]pyrimidines as new potent PDE4 inhibitors” (Bioorg Med Chem Lett, 2016)
